In patent publication US10206907B2, “Compounds useful for the treatment of degenerative and inflammatory diseases” (GALAPAGOS NV, priority 2008, dated 2019):

Key:
[1] = test system: JAK-STAT signalling in HeLa cells; assay: JAK-STAT signalling assay (OSM-triggered pSTAT1(2)-luciferase reporter in HeLa cells); type: cell-based; details: Homo sapiens; HeLa cells, OSM-triggered pSTAT1(2)-luciferase reporter; read-out: STAT signalling EC50
Experimental: HeLa cells were maintained in Dulbecco's Modified Eagle's Medium (DMEM) containing 10% heat inactivated fetal calf serum, 100 U/mL penicillin and 100 μg/mL streptomycin. HeLa cells were used at 70% confluence for transfection. 20,000 cells in 87 μL cell culture medium were transiently transfected with 40 ng pSTAT1(2)-luciferase reporter (Panomics), 8 ng of LacZ reporter as internal control reporter and 52 ng of pBSK using 0.32 μL Jet-PEI (Polyplus) as transfection reagent per well in 96-well plate format. After overnight incubation at 37° C., 10% CO2, transfection medium was removed.
40 μL of cell lysate was used to read β-galactosidase activity by adding 180 μL βGal solution (30 μl ONPG 4 mg/mL+150 μL β-Galactosidase buffer (0.06 M Na2HPO4, 0.04 M NaH2PO4, 1 mM MgCl2)) for 20 min.
Luciferase activity was measured using 40 μL cell lysate plus 40 μl of Steadylite® as described by the manufacturer (Perkin Elmer), on the Envision (Perkin Elmer).
The positive and negative controls were used to calculate z’ and ‘percent inhibition’ (PIN) values.
PIN values were plotted for compounds tested in dose-response and EC50 values were derived.

[2] = target: Recombinant human JAK1 catalytic domain (Homo sapiens (Human), UniProt P23458); assay: JAK1 inhibition assay; type: biochemical; details: semi-quantitative score
Procedure, shortened: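 IC50 values come from dose-response series, with each point expressed as percent inhibition of cpm. Vehicle sets full activity and 10 μM staurosporine sets background. Incorporated radioactivity counted by scintillation after washing with 75 mM phosphoric acid.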

[3] = target: Recombinant human JAK2 catalytic domain (Homo sapiens (Human), UniProt O60674); assay: JAK2 inhibition assay; type: biochemical; details: semi-quantitative score
Procedure, shortened: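 Activity was taken as vehicle cpm minus cpm with 10 μM staurosporine, and inhibition was expressed on that scale. Incubation was 90 min at 30 °C, followed by acid quench, phosphoric acid washes and Microscint counting. Compounds were tested as dose series to obtain IC50.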

[4] = test system: MMP13 in SW1353 cells; assay: OSM/IL-1β signaling assay (MMP13 levels in SW1353 cells); type: cell-based; details: Homo sapiens; SW1353 cells, OSM and IL-1β triggered, MMP13 levels 48 hours after triggering; read-out: MMP13 EC50;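 note: secreted MMP13 captured by antibody, activated with APMA and its activity read by fluorescence, inhibition scaled between vehicle-treated triggered wells (0%) and untriggered wells (100%)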

Chain of Recombinant human JAK1 catalytic domain (P23458 850-1154): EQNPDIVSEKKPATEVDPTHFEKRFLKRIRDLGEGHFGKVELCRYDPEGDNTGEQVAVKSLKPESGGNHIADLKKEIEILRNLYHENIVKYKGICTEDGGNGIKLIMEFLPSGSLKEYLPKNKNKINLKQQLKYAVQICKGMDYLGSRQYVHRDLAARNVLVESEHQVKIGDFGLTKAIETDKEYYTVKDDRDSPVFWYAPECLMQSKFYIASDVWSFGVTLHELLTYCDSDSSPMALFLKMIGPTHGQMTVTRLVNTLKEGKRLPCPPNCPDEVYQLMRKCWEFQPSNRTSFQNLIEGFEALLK
Chain of Recombinant human JAK2 catalytic domain (O60674 808-1132): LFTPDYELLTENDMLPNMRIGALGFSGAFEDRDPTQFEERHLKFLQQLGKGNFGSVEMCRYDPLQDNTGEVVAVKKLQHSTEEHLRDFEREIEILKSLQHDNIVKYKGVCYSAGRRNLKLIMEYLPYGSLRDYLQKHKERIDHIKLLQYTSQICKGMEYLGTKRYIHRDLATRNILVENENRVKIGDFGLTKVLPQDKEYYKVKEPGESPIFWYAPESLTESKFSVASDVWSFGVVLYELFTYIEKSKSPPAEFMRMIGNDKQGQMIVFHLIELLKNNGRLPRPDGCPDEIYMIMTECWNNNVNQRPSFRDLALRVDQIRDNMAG

Row | SMILES | EC50 [1] [nM] | IC50 [2] [nM] | IC50 [3] [nM] | EC50 [4] [nM]
1 | O=C(Nc1nc2cccc(-c3cccc(OCc4ccccc4)c3)n2n1)C1CC1 [Compound 14, N-(5-(3-(benzyloxy)phenyl)-[1,2,4]triazolo[1,5-a]pyridin-2-yl)cyclopropanecarboxamide] | > 1000 | 101 to 500 | 501 to 1000 | –
2 | O=C(Nc1nc2cccc(-c3ccc(-c4cccs4)cc3)n2n1)C1CC1 [Compound 20, N-(5-(4-(thiophen-2-yl)phenyl)-[1,2,4]triazolo[1,5-a]pyridin-2-yl)cyclopropanecarboxamide] | 501 to 1000 | 101 to 500 | 501 to 1000 | –
3 | CN1CCC(NC(=O)c2ccc(-c3cccc4nc(NC(=O)C5CC5)nn34)cc2)CC1 [Compound 32, 4-(2-(cyclopropanecarboxamido)-[1,2,4]triazolo[1,5-a]pyridin-5-yl)-N-(1-methylpiperidin-4-yl)benzamide] | – | 501 to 1000 | > 1000 | > 1000
4 | CC1CCN(C(=O)c2ccc(-c3cccc4nc(NC(=O)C5CC5)nn34)cc2)CC1 [Compound 146, N-(5-(4-(4-methylpiperidine-1-carbonyl)phenyl)-[1,2,4]triazolo[1,5-a]pyridin-2-yl)cyclopropanecarboxamide] | > 1000 | < 100 | – | > 1000
5 | O=C(Nc1nc2cccc(-c3ccc(OCc4ccc(-c5nnn[nH]5)nc4)cc3)n2n1)C1CC1 [Compound 183, Cyclopropanecarboxylic Acid (5-{4-[6-(2H-tetrazol-5-yl)-pyridin-3-ylmethoxy]-phenyl}-[1,2,4]triazolo[1,5-a]pyridin-2-yl)-amide] | > 1000 | < 100 | – | > 1000
6 | N#CC1CCN(Cc2ccc(-c3cccc4nc(NC(=O)C5CC5)nn34)cc2)CC1 [Compound 232, Cyclopropanecarboxylic acid {5-[4-(4-cyano-piperidin-1-ylmethyl)-phenyl]-[1,2,4]triazolo[1,5-a]pyridin-2-yl}-amide] | > 1000 | < 100 | 101 to 500 | –
7 | O=C(NCc1ccc(-c2cccc3nc(NC(=O)C4CC4)nn23)cc1)C1CC1 [Compound 272, Cyclopropanecarboxylic acid 4-[2-(cyclopropanecarbonyl-amino)-[1,2,4]triazolo[1,5-a]pyridin-5-yl]-benzylamide] | > 1000 | < 100 | 101 to 500 | –
8 | N#Cc1ccc(OC2CN(Cc3ccc(-c4cccc5nc(NC(=O)C6CC6)nn45)cc3)C2)cc1 [Compound 278, Cyclopropanecarboxylic acid (5-{4-[3-(4-cyano-phenoxy)-azetidin-1-ylmethyl]-phenyl}-[1,2,4]triazolo[1,5-a]pyridin-2-yl)-amide] | > 1000 | < 100 | 101 to 500 | –
9 | COC1CCN(Cc2ccc(-c3cccc4nc(NC(=O)C5CC5)nn34)cc2)CC1 [Compound 281, Cyclopropanecarboxylic acid {5-[4-(4-methoxy-piperidin-1-ylmethyl)-phenyl]-[1,2,4]triazolo[1,5-a]pyridin-2-yl}-amide] | > 1000 | < 100 | > 1000 | –
10 | CC(=O)NC1CN(C(=O)c2ccc(-c3cccc4nc(NC(=O)C5CC5)nn34)cc2)C1 [Compound 287, Cyclopropanecarboxylic acid {5-[4-(3-acetylamino-azetidine-1-carbonyl)-phenyl]-[1,2,4]triazolo[1,5-a]pyridin-2-yl}-amide] | > 1000 | < 100 | – | > 1000
11 | N#CC1CN(c2ccc(-c3cccc4nc(NC(=O)C5CC5)nn34)cc2)C1 [Compound 288, Cyclopropanecarboxylic acid {5-[4-(3-cyano-azetidin-1-yl)-phenyl]-[1,2,4]triazolo[1,5-a]pyridin-2-yl}-amide] | > 1000 | < 100 | 101 to 500 | –
12 | CC(C)(C)OC(=O)NC1CCN(Cc2ccc(-c3cccc4nc(NC(=O)C5CC5)nn34)cc2)CC1 [Compound 310] | > 1000 | < 100 | > 1000 | –
13 | O=C(Nc1nc2cccc(-c3ccc(C(=O)N4CC(N5CCOCC5)C4)cc3)n2n1)C1CC1 [Compound 326, Cyclopropanecarboxylic acid {5-[4-(3-morpholin-4-yl-azetidine-1-carbonyl)-phenyl]-[1,2,4]triazolo[1,5-a]pyridin-2-yl}-amide] | > 1000 | 101 to 500 | > 1000 | –

Next, values leading:

Row | EC50 [1] [nM] | IC50 [2] [nM] | IC50 [3] [nM] | EC50 [4] [nM] | SMILES
14 | – | 101 to 500 | 101 to 500 | > 1000 | O=C(Nc1nc2cccc(-c3ccc(C(=O)N4CCOCC4)cc3)n2n1)C1CC1 [Compound 24, N-(5-(4-(morpholine-4-carbonyl)phenyl)-[1,2,4]triazolo[1,5-a]pyridin-2-yl)cyclopropanecarboxamide]
15 | > 1000 | < 100 | – | 501 to 1000 | O=C(Nc1nc2cccc(-c3ccc(NS(=O)(=O)c4ccccc4)cc3)n2n1)C1CC1 [Compound 79, N-(5-(4-(phenylsulfonamido)phenyl)-[1,2,4]triazolo[1,5-a]pyridin-2-yl)cyclopropanecarboxamide]
16 | > 1000 | < 100 | 101 to 500 | – | CN1CCN(c2ccc(NCc3ccc(-c4cccc5nc(NC(=O)C6CC6)nn45)cc3)cn2)CC1 [Compound 235, Cyclopropanecarboxylic acid [5-(4-{[6-(4-methyl-piperazin-1-yl)-pyridin-3-ylamino]-methyl}-phenyl)-[1,2,4]triazolo[1,5-a]pyridin-2-yl]-amide]
17 | > 1000 | < 100 | 101 to 500 | – | N#Cc1ccc(-c2ccc(-c3cccc4nc(NC(=O)C5CC5)nn34)cc2)cn1 [Compound 239, Cyclopropanecarboxylic Acid {5-[4-(6-cyano-pyridin-3-yl)-phenyl]-[1,2,4]triazolo[1,5-a]pyridin-2-yl}-amide]
18 | > 1000 | 101 to 500 | > 1000 | – | CN(C)C1CCCN(C(=O)c2ccc(-c3cccc4nc(NC(=O)C5CC5)nn34)cc2)C1 (stereo not drawn) [Compound 269, Cyclopropanecarboxylic acid {5-[4-(3-dimethylamino-piperidine-1-carbonyl)-phenyl]-[1,2,4]triazolo[1,5-a]pyridin-2-yl}-amide]
19 | > 1000 | < 100 | 101 to 500 | – | O=C1CN(C(=O)c2ccc(-c3cccc4nc(NC(=O)C5CC5)nn34)cc2)CCN1 [Compound 277, Cyclopropanecarboxylic acid [5-[4-(3-oxo-piperazine-1-carbonyl)-phenyl]-[1,2,4]triazolo[1,5-a]pyridin-2-yl}-amide]
20 | > 1000 | < 100 | 501 to 1000 | – | N#Cc1ccc(COC2CN(c3ccc(-c4cccc5nc(NC(=O)C6CC6)nn45)cc3)C2)cc1 [Compound 284, Cyclopropanecarboxylic acid (5-{4-[3-(4-cyano-benzyloxy)-azetidin-1-yl]-phenyl}-[1,2,4]triazolo[1,5-a]pyridin-2-yl)-amide]
21 | > 1000 | < 100 | > 1000 | – | COC1CCN(C(=O)c2ccc(-c3cccc4nc(NC(=O)C5CC5)nn34)cc2)CC1 [Compound 293, Cyclopropanecarboxylic acid {5-[4-(4-methoxy-piperidine-1-carbonyl)-phenyl]-[1,2,4]triazolo[1,5-a]pyridin-2-yl}-amide]
22 | 501 to 1000 | < 100 | 101 to 500 | – | N#CC1CN(Cc2ccc(-c3cccc4nc(NC(=O)C5CC5)nn34)cc2)C1 [Compound 303, Cyclopropanecarboxylic acid {5-[4-(3-cyano-azetidin-1-ylmethyl)-phenyl]-[1,2,4]triazolo[1,5-a]pyridin-2-yl}-amide]
23 | > 1000 | < 100 | 101 to 500 | – | O=C(Nc1nc2cccc(-c3ccc(CN4CCCC(O)C4)cc3)n2n1)C1CC1 (stereo not drawn) [Compound 313, Cyclopropanecarboxylic acid {5-[4-(3-hydroxy-piperidin-1-ylmethyl)-phenyl]-[1,2,4]triazolo[1,5-a]pyridin-2-yl}-amide]
24 | > 1000 | 101 to 500 | > 1000 | – | CN(C)C1CN(C(=O)c2ccc(-c3cccc4nc(NC(=O)C5CC5)nn34)cc2)C1 [Compound 327, Cyclopropanecarboxylic acid {5-[4-(3-dimethylamino-azetidine-1-carbonyl)-phenyl]-[1,2,4]triazolo[1,5-a]pyridin-2-yl}-amide]
25 | > 1000 | 101 to 500 | > 1000 | – | CN(C)CC1CN(C(=O)c2ccc(-c3cccc4nc(NC(=O)C5CC5)nn34)cc2)C1 [Compound 329, Cyclopropanecarboxylic acid {5-[4-(3-dimethylaminomethyl-azetidine-1-carbonyl)-phenyl]-[1,2,4]triazolo[1,5-a]pyridin-2-yl}-amide]
